In patent US10238658B2, “1-pyrazolyl-3-(4-((2-anilinopyrimidin-4-yl) oxy) napththalen-1-yl) ureas as p38 MAP kinase inhibitors” (Respivert Limited, priority 2011, dated 2019):
pIC50: −log10 of the molar value.

Experiments:
IL-8 = assay: LPS-induced IL-8 release in d-U937 cells; type: cell-based; conditions: Homo sapiens, dU937, dU937 cells
Summary of the method: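 U937 cells differentiated with PMA (100 ng/mL, 48–72 hr) were pre-incubated with compound for 2 hr, then stimulated with E. coli O111:B4 LPS (0.1 μg/mL) for 4 hr. Supernatant cytokine measured by sandwich ELISA; inhibition vs vehicle control at each concentration, REC50 taken from the concentration-response curve.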

ICAM-1 = assay: Poly I:C-induced ICAM-1 expression in BEAS2B cells; type: cell-based; conditions: Homo sapiens, BEAS-2B, read-out: PolyIC/ICAM1 IC50 (BEAS2B)
Method: Poly I:C was used in these studies as a simple, RNA virus mimic. Poly I:C-Oligofectamine mixture (1 μg/mL Poly I:C, ±2% Oligofectamine, 25 μL; Invivogen Ltd., San Diego, Calif., and Invitrogen, Carlsbad, Calif., respectively) was transfected into BEAS2B cells (human bronchial epithelial cells, ATCC). Cells were pre-incubated with final concentrations of test compounds for 2 hr and the level of ICAM-1 expression on the cell surface was determined by cell-based ELISA. At a time point 18 hr after poly I:C transfection, cells were fixed with 4% formaldehyde in PBS (100 μL) and then endogenous peroxidase was quenched by the addition of washing buffer (100 μL, 0.05% Tween in PBS: PBS-Tween) containing 0.1% sodium azide and 1% hydrogen peroxide. Cells were washed with wash-buffer (3×200 μL). and after blocking the wells with 5% milk in PBS-Tween (100 μL) for 1 hr, the cells were incubated with anti-human ICAM-1 antibody (50 μL; Cell Signaling Technology, Danvers, Mass.) in 1% BSA PBS overnight at 4° C.
The cells were washed with PBS-Tween (3×200 μL) and incubated with the secondary antibody (100 μL; HRP-conjugated anti-rabbit IgG, Dako Ltd., Glostrup, Denmark). The cells were then incubated with of substrate (50 μL) for 2-20 min, followed by the addition of stop solution (50 μL, 1N H2SO4). The ICAM-1 signal was detected by reading […] the absorbance at 450 nm against a reference wavelength of 655 nm using a spectrophotometer. The cells were then washed with PBS-Tween (3×200 μL) and total cell numbers in each well were determined by reading absorbance at 595 nm after Crystal Violet staining (50 μL of a 2% solution in PBS) and elution by 1% SDS solution (100 μL) in distilled water. The measured OD 450-655 readings were corrected for cell number by dividing with the OD595 reading in each well. The inhibition of ICAM-1 expression was calculated at each concentration of test compound by comparison with vehicle control.

d-U937 cells = assay: Cell viability: MTT assay; type: cell-based, human; conditions: 1 μg/mL
Method: Differentiated U937 cells were pre-incubated with each test compound (final concentration 1 μg/mL or 10 μg/mL in 200 μL media indicated below) under two protocols: the first for 4 hr in 5% FCS RPMI1640 media and the second in 10% FCS RPMI1640 media for 24 h. The supernatant was replaced with new media (200 μL) and MTT stock solution (10 μL, 5 mg/mL) was added to each well. After incubation for 1 hr the media were removed, DMSO (200 μL) was added to each well and the plates were shaken lightly for 1 hr prior to reading the absorbance at 550 nm. The percentage loss of cell viability was calculated for each well relative to vehicle (0.5% DMSO) treatment. Consequently an apparent increase in cell viability for drug treatment relative to vehicle is tabulated as a negative percentage.

A/J mice = assay: Cigarette smoke model: macrophage and neutrophil accumulation in BALF; type: in vivo, mouse; conditions: for % inhibition Macrophage in BALF / % inhibition Neutrophil in BALF: tobacco smoke
Method: A/J mice (males, 5 weeks old) were exposed to cigarette smoke (4% cigarette smoke, diluted with air) for 30 min/day for 11 days using a Tobacco Smoke Inhalation Experiment System for small animals (Model SIS-CS; Sibata Scientific Technology, Tokyo, Japan). […] At 12 hr after the last dosing, each of the animals was anesthetized, the trachea cannulated and bronchoalveolar lavage fluid (BALF) was collected. The numbers of alveolar macrophages and neutrophils were determined by FACS analysis (EPICS® ALTRA II, Beckman Coulter, Inc., Fullerton, Calif., USA) using anti-mouse MOMA2 antibody (macrophage) or anti-mouse 7/4 antibody (neutrophil). BALF was centrifuged and the supernatant was collected. The level of keratinocyte chemoattractant (KC; CXCL1) in BALF was quantitated using a Quentikine® mouse KC ELISA kit (R&D systems, Inc., Minneapolis, Minn., USA).

IL-6 = assay: TNFα-stimulated IL-6 production in primary bronchial epithelial cells from COPD; type: cell-based; conditions: Homo sapiens, Epithelial cell
Method: Primary airway epithelial cells obtained from patients with COPD were purchased from Asterand (Royston, UK), and maintained in bronchial epithelial cell growth media that was prepared by mixing together LHC8 (lnvitrogen) (500 mL), with LHC9 (Invitrogen) (500 mL) and 3 μL of retinoic acid solution (5 mg/mL in neat DMSO. The media was removed by aspiration and fresh BEGM (200 μL) was added to each well. Where appropriate, 1 μL of a solution of the test compound at the state concentrations or 1 μL of DMSO as the vehicle control was added and the cells were incubated for 2 hr. The cells were stimulated with TNFα (50 μL; final concentration 50 ng/mL) and then incubated for 4 hr at 37° C. and 5% CO2. The supernatant was then collected and kept at −20° C.
The levels of IL-6 and IL-8 were determined by ELISA using R&D Systems' Human IL-6 and IL-8 Duoset® Elisa Kits. The inhibition of IL-6 and IL-8 production was calculated at each concentration by comparison with vehicle control.

Row | SMILES | pIC50 (IL-8) | pIC50 (ICAM-1) | MTT Assay Cell viability at time point in d-U937 Cells 4 h (d-U937 cells; 4 h) | MTT Assay Cell viability at time point in d-U937 Cells 24 h (d-U937 cells; 24 h) | macrophage accumulation in BALF induced by cigarette smoke, effect in words (A/J mice; mice) | neutrophil accumulation in BALF induced by cigarette smoke, effect in words (A/J mice; mice) | % inhibition Macrophage in BALF (A/J mice; 0.32 μg/mL intra-nasal) | % inhibition Neutrophil in BALF (A/J mice; 0.32 μg/mL intra-nasal) | % inhibition Macrophage in BALF (A/J mice; 1.6 μg/mL intra-nasal) | % inhibition Neutrophil in BALF (A/J mice; 1.6 μg/mL intra-nasal) | % inhibition Macrophage in BALF (A/J mice; 8.0 μg/mL intra-nasal) | % inhibition Neutrophil in BALF (A/J mice; 8.0 μg/mL intra-nasal) | % inhibition Macrophage in BALF (A/J mice; 40 μg/mL intra-nasal) | % inhibition Neutrophil in BALF (A/J mice; 40 μg/mL intra-nasal) | pIC50 (IL-6; COPD patients, TNFα stimulated) | Emax at 0.1 µg/mL (IL-6; read-out: IL-6 E max, bronchial epithelial cell)
1 | Cc1ccc(-n2nc(C(C)(C)C)cc2NC(=O)Nc2ccc(Oc3ccnc(Nc4cccc(O)c4)n3)c3ccccc23)cc1 [Example 2, 1-(3-(tert-Butyl)-1-(p-tolyl)-1H-pyrazol-5-yl)-3-(4-((2-((3-hydroxyphenyl)amino)pyrimidin-4-yl)oxy)naphthalen-1-yl)urea] | 8.57 | 8.37 | −ve (−ve and +ve indicate the value is below and above respectively, the no significant effect threshold defined as 30% inhibition at 1 μg/mL at the time point indicated) | −ve (−ve and +ve indicate the value is below and above respectively, the no significant effect threshold defined as 30% inhibition at 1 μg/mL at the time point indicated) |  |  |  |  |  |  |  |  |  |  |  | 
2 | Cc1ccc(-n2nc(C(C)(C)C)cc2NC(=O)Nc2ccc(Oc3ccnc(Nc4ccccc4)n3)c3ccccc23)cc1 [Example 1, 1-(3-(tert-Butyl)-1-(p-tolyl)-1H-pyrazol-5-yl)-3-(4-(2-(phenylamino)pyrimidin-4-yloxy)naphthalen-1-yl)urea] |  |  |  |  | dose-dependent inhibition | dose-dependent inhibition | 11% | 12% | 28% | 29% | 43% | 41% | 64% | 52% | 8.77 | 100%
